Source: patent publication US20180201899A1, “IPSC-EC PERFORMANCE ENHANCEMENT VIA SIRT1 OVEREXPRESSION” (Northwestern University, priority 2015, published 2018)

Test system: iPSC-ECs
Test: Senescence associated β-galactosidase staining
Format: cell-based
Description: Nitric oxide (NO) production was assessed via 4,5-diaminofluorescein.diacetate (DAF 2-DA) assay (Life Technologies). Cell mitogenic effect in response to VEGF (100 ng/ml) was assessed via MTT assay (Sigma-Aldrich) after treating cells in serum-free (starvation) medium, or starvation medium containing 100 ng/ml VEGF for 24 hours. Cell proliferation was determined by counting cell number every seven days after lentiviral transduction using a hemocytometer by excluding dead cells with Trypan blue. […] All results were normalized to cell number via Alamar blue assay (Sigma-Aldrich).Cellular senescence assay kit (Cell Signaling Technology, Danvers, Mass.) was used to stain for senescence associated β-galactosidase (β-gal) in the presence or absence of Ex-527 (10 μM), a SIRT1 inhibitor, and the percentage of β-gal positive cells was quantified with ImageJ. […]
Cellular senescence assay kit (Cell Signaling Technology, Danvers, Mass.) was used to stain for β-galactosidase (β-gal) in the presence or absence of Ex-527 (10 μM), a SIRT1 inhibitor (18), and the percentage of β-gal positive cells was quantified with ImageJ. […] Cell proliferation was determined by counting cell number every seven days after lentiviral transduction using a hemocytometer by excluding dead cells with Trypan blue. […] NO production was assessed via 4,5-diaminofluorescein.diacetate (DAF 2-DA) assay (Life Technologies). […]

Question: With `NC(=O)C1CCCc2c1[nH]c1ccc(Cl)cc21` (centres unmarked) [Ex-527] as the compound, how does the “β-gal+ (senescent) cells” value (10 μM Ex-527, LV-empty transduced cells, passage 6) read?
Answer: 56.0±6.2%

Question: And the “effect on percentage of senescent cells” value (10 μM Ex-527, all lentiviral groups)?
Answer: higher percentage of senescent cells in all groups
